# Laboratory results published in patent EP4595972A1, “PEPTIDE FOR TREATING OR PREVENTING 4R TAUOPATHY” (GemVax & KAEL Co., Ltd., priority 2022, dated 2024).
# How the values were obtained:
# [1] = tested on: AT8 (phospho-Tau S202/T205); assay: AT8 immunofluorescent staining of brain tissues (tau hyperphosphorylation); type: in vivo, mouse
# Excerpt: (§1) • 1) Experimental method for brain tissue sampling • (1) On day 1, after completing 63 times administration schedule, the mice of TauP301L-BiFC mouse model were anesthetized, followed by preparing heart laparotomy. • (2) Saline was introduced into the heart of each mouse in the TauP301L-BiFC mouse model, followed by removing vivo blood using a perfusion pump machine. • (3) The brain of the mouse was extracted and weighed. • (4) The brain to be used for tissue staining experiment was immersed in 4% FPA solution and fixed for 24 hours. • (5) On day 2, after completing fixation, the brain tissues were immersed in 20% sucrose solution to remove water for 24 hours. • (6) On day 3, the brain tissues were immersed in 30% sucrose solution to remove water for 48 hours. • (7) On day 5, the brain tissues free of water were taken and extra moisture was removed. Then, the brain tissues and a frozen tissue embedding agent (OCT compound) were placed in a prepared mold, followed by freezing the brain tissues as fast as possible while protecting the tissues. The frozen brain tissue-containing mold was stored in a defreezer at -80°C. Thereafter, using a cryostat for frozen fragment, the tissues were cut into a unit thickness of 30 µm and stored in 0.05% sodium azide solution.
# • (1) On day 1, a brain tissue sample having a thickness of 30 µm under cryosection was selected for each brain region, immersed in PBS solution, and then washed three times for 10 minutes. • (3) The sample was fixed in 3.7% formaldehyde for 5 minutes. • (4) The sample was washed in PBS solution three times for 10 minutes. • (5) The brain tissue sample was subjected to permeabilization in 0.3% PBS-T solution. • (6) The sample was immersed in 5% BSA in PBS solution for 1 hour for blocking. • (7) The brain tissues were input into 3% BSA in which primary antibody (AT8) was diluted at a ratio of 1:200, 0.1% Tween-20 in PBS solution, followed by overnight (O/N) binding. • (8) On day 2, the brain tissues were immersed in PBS solution, and washed three times for 10 minutes. • (9) The brain tissues were input into 3% BSA in which secondary antibody was diluted at a ratio of 1:500, 0.1% Tween-20 in PBS solution, followed by binding at room temperature for 1 hour. • (10) The brain tissues were immersed in PBS solution, and washed once for 10 minutes. • (11) The brain tissues were immersed in Hoechst (stock conc., 1mg/mL) diluted at a ratio of 1:2000 in PBS solution, followed by nuclei staining. • (12) The brain tissues were immersed in PBS solution, and washed three times for 10 minutes. • (13) Brain tissue fluorescent imaging was performed using a slide scanner.
# (§2) • (1) In order to obtain fluorescent images of the stained brain tissues, a brain tissue slide was scanned using Zeiss Axio Scan (Zeiss, Oberkochen, Germany). • BiFC fluorescence: λex=460-490 nm, λem=500-550 nm • AT8 fluorescence: λex=620-640 nm, λem=650-700 nm • Hoechst fluorescence: λex=330-375 nm, λem=430-470 nm • (3) For brain tissues per site obtained through imaging, fluorescent value was calculated through Image J software (NIH).
# TauP301L-BiFC mice = assay: Novel object recognition test (cognitive ability) in 4R TauP301L-BiFC mouse model; type: in vivo; details: LMTM 15 mg/kg; mice administered 62 times; FIG. 3
# Description: • (1) On day 1, adaptation training to a new open space was conducted. After an adaptation time for two similar objects added to the corresponding open space on day 2, an experiment to evaluate a cognitive ability to the newly replaced object on day 3 was conducted. • (2) 1 hour before the experiment, a time for adaptation of experimental mice in a space wherein the behavior experiment is conducted, should be ensured. • (3) On day 1, after exposing the experimental mouse to an open space in a size of 40 x 40 cm, the mouse was subjected to behavior assessment for 10 minutes. • (4) On day 2, two similar objects were placed in the same open space, followed by enabling the mouse to learn the objects for 10 minutes. • (5) On day 3, one among the two objects learned in the same open space was replaced with a new object. At this time, a cognitive ability to the replaced object was evaluated.
# Results of evaluating the cognitive ability improvement efficacy through a novel object recognition test in the 4R TauP301L-BiFC mouse model were shown in FIG. 3. The experiment was conducted using the TauP301L-BiFC mouse model including 7- to 12-month-old mice administered with the drug for 5 months. […] The obtained results were analyzed through bidirectional ANOVA using Sidak's multiple comparisons test (*p<0.05; ***p<0.0001).
# [2] = reported in Kim et al., Exp. Mol. Med. 55, 612-627 (2023); read-out: GI50 (cytotoxicity side effects); cited from earlier work
# tau oligomer (Tau-BiFC) = target: T1, tau oligomer (Tau-BiFC) (Homo sapiens, UniProt P10636, P618L); assay: Tau-BiFC fluorescent imaging of brain tissues (tau oligomer formation); type: in vivo, mouse
# T1 construct: VN173 (BiFC fragment); VC155 (BiFC fragment); expressed in transfected cells; host or cells: brain of transgenic TauP301L-BiFC mice (transgene-expressed)
# T1 sequence (P10636 1-441 isoform P10636-8 P301L): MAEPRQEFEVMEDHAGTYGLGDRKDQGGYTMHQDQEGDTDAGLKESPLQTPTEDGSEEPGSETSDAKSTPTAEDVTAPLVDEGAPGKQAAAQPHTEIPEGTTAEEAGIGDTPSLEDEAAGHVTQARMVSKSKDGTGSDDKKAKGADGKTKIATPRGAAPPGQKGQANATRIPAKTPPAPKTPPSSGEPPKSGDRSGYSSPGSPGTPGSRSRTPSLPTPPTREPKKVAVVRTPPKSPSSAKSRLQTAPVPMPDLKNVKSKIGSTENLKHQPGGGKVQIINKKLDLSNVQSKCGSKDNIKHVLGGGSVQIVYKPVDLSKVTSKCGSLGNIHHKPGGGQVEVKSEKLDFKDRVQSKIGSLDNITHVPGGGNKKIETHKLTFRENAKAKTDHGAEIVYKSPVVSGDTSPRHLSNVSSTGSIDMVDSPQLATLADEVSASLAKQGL
# T1 sequence (P10636 1-441 isoform P10636-8 P301L): as above
# Excerpt: as §1
# • (1) On day 1, a brain tissue sample having a thickness of 30 µm under cryosection was selected for each brain region, immersed in PBS solution, and then washed three times. • (2) A solution of 0.05% Sudan Black B in 70% EtOH was stirred overnight (O/N), and then, particles were filtered through 0.22 µm filter. • (3) The selected brain tissue sample was immersed in distilled water (D.W.), and washed three times for 5 minutes. • (4) The brain tissues were immersed in a prepared 0.05% Sudan Black B solution, followed by staining for 10 minutes. • (5) The brain tissues stained in Sudan black B were immersed in 0.1% PBS-T solution, and washed at an interval of 30 seconds to control a degree of staining. • (6) The tissues were washed in D.W. three times for 5 minutes. • (7) In Hoechst solution at a concentration of 0.2 µg/mL in distilled water, the brain tissues were immersed to conduct nuclei staining for 20 minutes. • (8) The tissues were washed in D.W. three times for 5 minutes. • (9) Tau-BiFC imaging was performed using a slide scanner.
# as §2
# [3] = patients with mild or moderate Alzheimer's disease; most general cause for stopping high-dose LMTM; cited from earlier work
# [4] = LMTM 15 mg/kg oral vs. vehicle, decrease (in parentheses)
# [5] = LMTM 15 mg/kg oral vs. vehicle, decrease (in parentheses), *p<0.05
smiles,measurement,setting,value
CN(C)c1ccc2c(c1)Sc1cc(N(C)C)ccc1N2.CS(=O)(=O)O.CS(=O)(=O)O [LMTM],"AT8 fluorescent level, Somatosensory cortex",[1]; [4],(31 %)
same,"AT8 fluorescent level, Substantia nigra",[1]; [4],(16 %)
same,"AT8 fluorescent level, Hippocampus",[1]; [5],(28 %)*
same,"AT8 fluorescent level, Motor cortex",[1]; [5],(26 %)*
same,"AT8 fluorescent level as compared to the vehicle group, in words",[1]; LMTM 15 mpk,"significantly reduced in the somatosensory cortex, motor cortex and hippocampus regions"
same,"cognitive ability for the new object (novel object recognition test), in words",TauP301L-BiFC mice,significantly improved
same,GI50,[2],6.4 ± 0.3 µM
same,"TauBiFC fluorescent level, Somatosensory cortex",tau oligomer (Tau-BiFC); [4],(15 %)
same,"TauBiFC fluorescent level, Substantia nigra",tau oligomer (Tau-BiFC); [4],(26 %)
same,"TauBiFC fluorescent level, Hippocampus",tau oligomer (Tau-BiFC); [5],(21 %)*
same,"TauBiFC fluorescent level, Motor cortex",tau oligomer (Tau-BiFC); [5],(27 %)*
same,"Tau-BiFC fluorescent level as compared to the vehicle group, in words",tau oligomer (Tau-BiFC); LMTM 15 mpk,"significantly reduced in the motor cortex, hippocampus and substantia nigra regions"
same,most common side effects,[3],most common side effects related to gastrointestinal and urinary system
